Consider twelve compounds from patent publication US5919940A, “Metalloproteinase inhibitors” (British Biotech Pharmaceuticals Limited, priority 1998, dated 1999).

One test has as its target Collagenase. Put plainly: Inhibition of collagenase (acetylated 14C collagen hydrolysis; Cawston and Barrett). Format: biochemical. Conditions: 37°, 16 hours, pH 7.5, read-out: In vitro inhibitory activity IC50, Collagenase.
The target in test [1] is T1, stromelysin (Homo sapiens, UniProt P08254). The settings on record: read-out: In vitro inhibitory activity IC50, Stromelsin; 14C acetylated casein, 37°, 16 hours, pH 7.5.
T1 sequence (P08254 100-477): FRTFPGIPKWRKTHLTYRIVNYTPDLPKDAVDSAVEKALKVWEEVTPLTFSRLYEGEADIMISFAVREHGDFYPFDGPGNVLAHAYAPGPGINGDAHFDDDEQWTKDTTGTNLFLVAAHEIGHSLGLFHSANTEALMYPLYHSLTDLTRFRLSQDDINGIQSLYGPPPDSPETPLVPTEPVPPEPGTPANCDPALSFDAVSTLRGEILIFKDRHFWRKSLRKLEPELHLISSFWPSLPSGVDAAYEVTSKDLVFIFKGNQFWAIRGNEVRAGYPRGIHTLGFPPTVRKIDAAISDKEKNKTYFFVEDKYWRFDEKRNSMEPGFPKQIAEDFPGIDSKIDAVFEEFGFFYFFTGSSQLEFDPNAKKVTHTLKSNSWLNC
Text: (§1) The casein was acetylated ^14 C casein prepared by the method of Cawston et al (ibid).
The next test deals with T2, 72 kDa Gelatinase (Homo sapiens, UniProt P08253).
T2 construct: endogenous in cells; host or cells: RPMI-7951 cells
T2 sequence (P08253 110-660): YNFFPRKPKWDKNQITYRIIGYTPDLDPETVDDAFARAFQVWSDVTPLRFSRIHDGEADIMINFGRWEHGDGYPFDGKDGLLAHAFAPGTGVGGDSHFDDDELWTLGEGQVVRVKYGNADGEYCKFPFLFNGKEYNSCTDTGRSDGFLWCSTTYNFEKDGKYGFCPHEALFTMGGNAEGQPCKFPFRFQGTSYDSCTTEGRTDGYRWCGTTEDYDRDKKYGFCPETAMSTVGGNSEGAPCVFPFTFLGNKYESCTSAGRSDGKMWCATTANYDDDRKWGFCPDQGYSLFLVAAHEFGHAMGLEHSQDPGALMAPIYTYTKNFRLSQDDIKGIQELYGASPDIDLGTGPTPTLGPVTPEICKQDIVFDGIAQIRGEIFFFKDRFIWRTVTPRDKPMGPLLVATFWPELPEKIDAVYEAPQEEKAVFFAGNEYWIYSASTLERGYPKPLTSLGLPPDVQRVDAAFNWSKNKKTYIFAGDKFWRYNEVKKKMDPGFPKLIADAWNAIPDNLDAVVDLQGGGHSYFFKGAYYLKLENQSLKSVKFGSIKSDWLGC
Nature of the test: Inhibition of 72 kDa gelatinase (14C-radiolabelled gelatin; Sellers et al). The format is biochemical.

Test [2] deals with T1, stromelysin. Nature of the test: biochemical.
Text: as §1
Where [3] appears, read: enzyme from RPMI-7951 cells, 14C gelatin, 37° C., 16 hours, read-out: In vitro inhibitory activity IC50, 72 kDa Gelatinase.

The structures appear in SMILES notation. Read-outs that look alike come from different tables or passages of the source.

For orientation: IC50 means the concentration that gives 50% inhibition.

Text for Collagenase: The samples were centrifuged to sediment undigested collagen, and an aliquot of the radioactive supernatant removed for assay on a scintillation counter as a measure of hydrolysis.

Turning to `CNC(=O)[C@H](Cc1ccccc1)NC(=O)[C@@H](CC(=O)NO)CC(C)C` [Comparator 1, 5-Methyl-3R-(1S-methylcarbamoyl-2-phenylethylcarbamoyl)hexanohydroxamic acid, reference compound], at Collagenase, the IC50 was 15 nM.
Turning to `CC(C)C[C@H](CC(=O)NO)C(=O)N[C@@H](Cc1ccccc1)C(=O)Nc1ccccc1` [Example 1, 5-Methyl-3R-(2-phenyl-1S-phenylcarbamoylethylcarbamoyl)-hexanohydroxamic acid], the IC50 on stromelysin [1] is 10 nM; at Collagenase, 20 nM; at 72 kDa Gelatinase (setting [3]), 60 nM.
For `COc1ccc(NC(=O)[C@H](Cc2ccccc2)NC(=O)[C@H](CC(C)C)[C@H](O)C(=O)NO)cc1` [Example 6], the figures for the IC50 at Collagenase, on 72 kDa Gelatinase (setting [3]) and against stromelysin [2] were 30 nM, 8 nM and 3 nM, respectively.
In the case of `CC(C)C[C@@H](C(=O)N[C@H](C(=O)Nc1ccccc1)C(C)(C)C)[C@H](O)C(=O)NO` [Example 4, 3R-(2,2-Dimethyl-1S-phenylcarbamoyl-propylcarbamoyl)-2S-hydroxy-5-methylhexanohydroxamic acid], the 50% inhibitory concentration (IC50) on Collagenase was 2 nM; on 72 kDa Gelatinase (setting [3]), 5 nM; on stromelysin [2], 9 nM.
On the same counts, the results for `CNC(=O)[C@H](Cc1ccccc1)NC(=O)[C@H](CC(C)C)[C@H](O)C(=O)NO` [Comparator 4, 2S-Hydroxy-3R-(1S-methylcarbamoyl-2-phenylethylcarbamoyl)-5-methylhexanohydroxamic acid, reference compound] are 15 nM, 3 nM and 200 nM.
Regarding `CNC(=O)[C@H](CC(C)C)NC(=O)[C@H](CC(C)C)[C@H](O)C(=O)NO` [Comparator 5, 2S-Hydroxy-3R-(1S-methylcarbamoyl-3-methyl-butylcarbamoyl)-5methylhexanohydroxamic acid, reference compound], the figures for the IC50 on Collagenase and on stromelysin [2] were 8 nM and 90 nM, respectively.
For the compound `CC(C)C[C@@H](C(=O)N[C@H](C(=O)Nc1ccccn1)C(C)(C)C)[C@H](O)C(=O)NO` [Example 8, 3R-(2,2-Dimethyl-1S-pyridin-2-ylcarbamoyl-propylcarbamoyl)-2S-hydroxy-5-methylhexanohydroxamic acid], the IC50 at Collagenase is 6 nM; on 72 kDa Gelatinase (setting [3]), 15 nM; at stromelysin [2], 30 nM.
On the same counts, the results for `CC(C)C[C@H](CC(=O)NO)C(=O)N[C@H](C(=O)Nc1ccccn1)C(C)(C)C` [Example 3, 3R-(2,2-Dimethyl-1S-pyridin-2-ylcarbamoyl-propylcarbamoyl)-5-methyl-hexanohydroxamic acid] are 40 nM, 30 nM and 150 nM.
Turning to `Cc1nc(NC(=O)[C@@H](NC(=O)[C@H](CC(C)C)[C@H](O)C(=O)NO)C(C)(C)C)sc1C` [Example 17, 3R-(2,2-Dimethyl-1S-(4,5-dimethylthiazol-2-ylcarbamoyl)-propylcarbamoyl)-2S-hydroxy-5-methylhexanohydroxamic acid], the IC50 at Collagenase stood at 2 nM; at 72 kDa Gelatinase (setting [3]) it was 30 nM; at stromelysin [2], 20 nM.
Regarding `CC(C)C[C@H](CC(=O)NO)C(=O)N[C@H](C(=O)Nc1ccccc1)C(C)(C)C` [Example 2, 3R-(2,2-Dimethyl-1S-phenylcarbamoyl-propylcarbamoyl)-5-methyl-hexanohydroxamic acid], the half-inhibitory concentration (IC50) on Collagenase is 30 nM; at 72 kDa Gelatinase (setting [3]), 30 nM; against stromelysin [2] it was 15 nM.
For the compound `CNC(=O)[C@@H](NC(=O)[C@@H](CC(=O)NO)CC(C)C)C(C)(C)C` [Comparator 3, 3R-(2,2-Dimethyl-1S-methylcarbamoyl-propylcarbamoyl)-5-methylhexanohydroxamic acid, reference compound], the IC50 on Collagenase was 10 nM; at 72 kDa Gelatinase, 8 nM; on stromelysin [2], 700 nM.
With `CC(C)C[C@H](NC(=O)[C@H](CC(C)C)[C@H](O)C(=O)NO)C(=O)Nc1ccc2ccccc2c1` [Example 5, 2S-Hydroxy-3R-(3-methyl-1S-napth-2-ylcarbamoyl-butylcarbamoyl)-5-methylhexanohydroxamic acid], the half-maximal inhibitory concentration (IC50) amounted to 30 nM on Collagenase, 6 nM on 72 kDa Gelatinase (setting [3]) and 5 nM at stromelysin [2].
